{
  "source": "patent US8394788B2",
  "about": "“Phenylsulfoxyoxazole compound inhibitors of urea transporters” (The Regents of the University of California, priority 2006, dated 2013)",
  "key": {"rat UT-A1": {"target": "T1, rat UT-A1 (Rattus norvegicus, UniProt Q62668)", "T1 sequence (Q62668 1-929)": "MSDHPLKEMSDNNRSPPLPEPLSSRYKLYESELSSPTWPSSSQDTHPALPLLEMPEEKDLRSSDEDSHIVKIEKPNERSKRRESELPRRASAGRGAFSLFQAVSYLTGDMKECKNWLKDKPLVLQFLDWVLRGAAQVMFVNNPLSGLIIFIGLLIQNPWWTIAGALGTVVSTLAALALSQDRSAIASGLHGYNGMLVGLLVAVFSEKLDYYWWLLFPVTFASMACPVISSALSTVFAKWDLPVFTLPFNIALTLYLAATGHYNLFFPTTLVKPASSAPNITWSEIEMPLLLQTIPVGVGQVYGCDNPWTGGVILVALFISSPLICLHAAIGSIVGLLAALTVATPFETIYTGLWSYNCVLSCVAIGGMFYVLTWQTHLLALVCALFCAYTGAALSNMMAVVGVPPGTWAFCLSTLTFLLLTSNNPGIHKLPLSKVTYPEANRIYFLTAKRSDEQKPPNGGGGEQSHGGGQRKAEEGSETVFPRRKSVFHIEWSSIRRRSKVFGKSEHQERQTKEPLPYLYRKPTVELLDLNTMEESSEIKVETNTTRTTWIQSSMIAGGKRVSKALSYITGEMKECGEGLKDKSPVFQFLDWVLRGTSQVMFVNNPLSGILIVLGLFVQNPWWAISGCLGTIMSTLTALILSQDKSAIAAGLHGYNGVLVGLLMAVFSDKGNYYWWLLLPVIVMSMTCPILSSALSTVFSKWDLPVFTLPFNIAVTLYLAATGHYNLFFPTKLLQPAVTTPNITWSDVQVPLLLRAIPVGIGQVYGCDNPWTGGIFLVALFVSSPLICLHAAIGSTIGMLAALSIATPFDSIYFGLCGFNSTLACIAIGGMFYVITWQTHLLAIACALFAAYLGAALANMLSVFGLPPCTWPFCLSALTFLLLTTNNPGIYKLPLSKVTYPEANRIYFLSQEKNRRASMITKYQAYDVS", "test": "UT-A1-facilitated urea flux across MDCK-UT-A1 cell layers", "type": "cell-based", "details": "forskolin 10 μM; phloretin 0.7 mM", "experimental": "Concentration-inhibition studies were performed to study the effect of the active mouse UT-B inhibitors on urea transport by UT-A. The amino acid sequences of UT-B and UT-A urea transporter isoforms share significant similarity. The cells used in these studies were MDCK cells that expressed rat UT-A1. MDCK-UT-A1-expressing cells were grown on collagen-coated porous filters until they were electrically tight, at which point 15 mM urea was introduced into buffer bathing the basolateral cell surface. […]\nUT-A1-facilitated urea flux in the basolateral-to-apical direction across unstimulated and forskolin-stimulated MDCK-UT-A1 cell layers was measured in response to a 15-mM urea gradient. […] Five μL samples of apical fluid were collected at specified times during incubation at 37° C., and urea concentration was determined using a commercial kit based on chromogenic urea complexation at 520-nm wavelength (Quantichrom™ Urea Assay Kit, BioAssay Systems, Hayward, Calif.). […] Aforsk, and Aphlor were averaged absorbance values (at 520 nm) for cultures treated with forskolin and forskolin+phloretin, respectively, and Atest were values from cultures treated with forskolin+test compound."}, "RBCs from wild-type mice": {"system": "RBCs from wild-type mice", "test": "Osmotic water permeability, RBCs from wild-type mice (stopped-flow)", "type": "cell-based, mouse", "experimental": "RBC urea and water permeabilities were assayed by stopped-flow light scattering using a Hi-Tech Sf-51 instrument (Wiltshire, UK). For measurement of urea permeability, dilutions of whole blood (human or mouse; see Example 1) in PBS (hematocrit: approximately 0.5%) were incubated with test compounds for 5 min and then subjected to a 250-mM inwardly directed gradient of urea. After an initial osmotic shrinking phase, the kinetics of increasing cell volume caused by urea influx were measured as the time-course of 90° scattered light intensity at 530 nm, with increasing cell volume resulting in reduced scattered light intensity. As a positive control, 0.7 mM phloretin was added to the RBC suspension prior to stopped-flow experiments. Measurements of water permeability were carried out similarly, with sucrose (cell-impermeant) used instead of urea to establish a 250-mM osmotic gradient. As a positive control, HgCl2 (0.3 mM) was added to the RBC suspension prior to stopped-flow measurements. Osmotic water permeability coefficients (Pf) were computed from light scattering data as described (van Hoek et al., J Biol. Chem. 267:18267-69 (1992)).\nThis example describes chemical knock-out of UT-B by UT-B inhibitors in RBCs and the effect on UT-B-facilitated water transport. […] Osmotic water permeability was measured by stopped-flow light scattering in RBCs from wild-type and AQP1-null mice as shown in FIG. 8A. […] AQP1-null RBCs had greater than 5-fold reduced Pf compared to wild-type RBCs."}, "UT": {"system": "UT", "details": "cited from earlier work"}},
  "data": [
    {"smiles": "O=C(CCc1ccc(O)cc1)c1c(O)cc(O)cc1O", "note": "[phloretin, reference compound]", "values": [
      {"measurement": "effect on UT-A1-facilitated urea transport", "setting": "rat UT-A1", "value": "inhibited"},
      {"measurement": "reduction in Pf", "setting": "RBCs from wild-type mice; 0.7 mM, wild-type mouse RBCs", "value": "small but significant reduction"},
      {"measurement": "effect on water transport in RBCs from wild-type mice", "setting": "RBCs from wild-type mice; 10° C., 250-mM sucrose gradient", "value": "little effect"},
      {"measurement": "concentration exhibiting activity as UT inhibitor", "setting": "UT", "value": "> 0.5", "unit": "mM"}
    ]}
  ]
}
